Data taken from ChEMBL document CHEMBL3399925, “Synthesis and antimycobacterial properties of ring-substituted 6-hydroxynaphthalene-2-carboxanilides” (Bioorg Med Chem, 2015).
In brackets after ≈: the same amount, converted by molar mass.

Tests used:
[1] = Lipophilicity, log K of the compound by HPLC method; format: physicochemical
[2] = test system: Mycobacterium tuberculosis; test: microbe, parasite or virus in culture; format: functional; conditions: H37Ra ATCC 25177, 168 h
Description: Antimycobacterial activity against Mycobacterium tuberculosis H37Ra ATCC 25177 incubated for 7 days by alamar blue assay

[3] = test system: Mycobacterium avium complex sp.; test: Antimycobacterial activity against Mycobacterium avium complex isolate CIT19/06 incubated for 5 days by alamar blue assay; format: functional; conditions: isolate CIT19/06, 120 h
[4] = test system: Mycobacterium avium subsp. paratuberculosis; test: Antimycobacterial activity against Mycobacterium avium subsp. paratuberculosis isolate CIT03 incubated for 11 days by alamar blue assay; format: functional; conditions: isolate CIT03, 264 h
THP-1 = test: Cytotoxicity against human THP1 cells after 24 hrs by WST1 assay; format: cell-based; conditions: THP-1, 24 h
[5] = test system: Mycobacterium tuberculosis; test: Antimycobacterial activity against Mycobacterium tuberculosis H37Ra ATCC 25177 assessed as cell viability at 8 ug/ml incubated for 7 days by MTT assay; format: functional

In the case of `O=C(Nc1ccccc1)c1ccc2cc(O)ccc2c1`, the “log K” value [1] is reported as 0.6612, the MIC90 [2] is reported as 30 µM (≈ 7.9 µg/mL) and the MIC90 [3] is reported as 57 µM (≈ 15 µg/mL). The MIC90 [4] was 30 µM (≈ 7.9 µg/mL) and the IC50 (THP-1) was over 30 µM.
For `COc1ccccc1NC(=O)c1ccc2cc(O)ccc2c1`, the “log K” value [1] was 0.6039, the MIC90 [2] was 27 µM (≈ 7.92 µg/mL) and the MIC90 [3] was 51 µM (≈ 15 µg/mL). It also gave an MIC90 [4] of 27 µM (≈ 7.92 µg/mL) and an IC50 (THP-1) of over 30 µM.
With `COc1cccc(NC(=O)c2ccc3cc(O)ccc3c2)c1` the “log K” value [1] was 0.4463, the MIC90 [2] was 27 µM (≈ 7.92 µg/mL) and the MIC90 [3] was 102 µM (≈ 29.9 µg/mL). It also gave an MIC90 [4] of 27 µM (≈ 7.92 µg/mL), an IC50 (THP-1) of over 30 µM and an Activity [5] of 62.2%.
For `COc1ccc(NC(=O)c2ccc3cc(O)ccc3c2)cc1`, the “log K” value [1] was 0.3313, the MIC90 [2] was 27 µM (≈ 7.92 µg/mL) and the MIC90 [3] was 852 µM (≈ 250 µg/mL). It also gave an MIC90 [4] of 27 µM (≈ 7.92 µg/mL), an IC50 (THP-1) of over 30 µM and an Activity [5] of 69%.
In the case of `Cc1ccccc1NC(=O)c1ccc2cc(O)ccc2c1`, the “log K” value [1] is reported as 0.369, the MIC90 [2] is reported as 29 µM (≈ 8.04 µg/mL) and the MIC90 [3] is reported as 29 µM (≈ 8.04 µg/mL). For the same compound, the MIC90 [4] was 29 µM (≈ 8.04 µg/mL) and the IC50 (THP-1) was over 30 µM.
With `Cc1cccc(NC(=O)c2ccc3cc(O)ccc3c2)c1` the “log K” value [1] was 0.6086, the MIC90 [2] was 29 µM (≈ 8.04 µg/mL) and the MIC90 [3] was 54 µM (≈ 15 µg/mL). The MIC90 [4] was 29 µM (≈ 8.04 µg/mL) and the IC50 (THP-1) was over 30 µM.
In the case of `Cc1ccc(NC(=O)c2ccc3cc(O)ccc3c2)cc1`, the “log K” value [1] is reported as 0.6227, the MIC90 [2] is reported as 29 µM (≈ 8.04 µg/mL) and the MIC90 [3] is reported as 451 µM (≈ 125 µg/mL). The MIC90 [4] was 29 µM (≈ 8.04 µg/mL) and the IC50 (THP-1) was over 30 µM.
For `O=C(Nc1ccccc1F)c1ccc2cc(O)ccc2c1`, the “log K” value [1] was 0.4921, the MIC90 [2] was 107 µM (≈ 30.1 µg/mL) and the MIC90 [3] was 107 µM (≈ 30.1 µg/mL). The MIC90 [4] was 53 µM (≈ 14.9 µg/mL).
With `O=C(Nc1cccc(F)c1)c1ccc2cc(O)ccc2c1` the “log K” value [1] was 0.5766, the MIC90 [2] was 28 µM (≈ 7.88 µg/mL) and the MIC90 [3] was 53 µM (≈ 14.9 µg/mL). For the same compound, the MIC90 [4] was 53 µM (≈ 14.9 µg/mL).
In the case of `O=C(Nc1ccc(F)cc1)c1ccc2cc(O)ccc2c1`, the “log K” value [1] is reported as 0.6726, the MIC90 [2] is reported as 28 µM (≈ 7.88 µg/mL) and the MIC90 [3] is reported as 213 µM (≈ 59.9 µg/mL). The MIC90 [4] was 53 µM (≈ 14.9 µg/mL).
In the case of `O=C(Nc1ccccc1Cl)c1ccc2cc(O)ccc2c1`, the “log K” value [1] is reported as 0.6777, the MIC90 [2] is reported as 27 µM (≈ 8.04 µg/mL) and the MIC90 [3] is reported as 50 µM (≈ 14.9 µg/mL). The MIC90 [4] was 840 µM (≈ 250 µg/mL), the IC50 (THP-1) was over 30 µM and the Activity [5] was 38%.
With `O=C(Nc1cccc(Cl)c1)c1ccc2cc(O)ccc2c1` the “log K” value [1] was 0.7684, the MIC90 [2] was 27 µM (≈ 8.04 µg/mL) and the MIC90 [3] was 101 µM (≈ 30.1 µg/mL). It also gave an MIC90 [4] of 840 µM (≈ 250 µg/mL) and an Activity [5] of 46.5%.
With `O=C(Nc1ccc(Cl)cc1)c1ccc2cc(O)ccc2c1` the “log K” value [1] was 0.7947, the MIC90 [2] was 27 µM (≈ 8.04 µg/mL) and the MIC90 [3] was 202 µM (≈ 60.1 µg/mL). It also gave an MIC90 [4] of 50 µM (≈ 14.9 µg/mL), an IC50 (THP-1) of over 30 µM and an Activity [5] of 43.8%.
In the case of `O=C(Nc1ccccc1Br)c1ccc2cc(O)ccc2c1`, the “log K” value [1] is reported as 0.7486, the MIC90 [2] is reported as 175 µM (≈ 59.9 µg/mL) and the MIC90 [3] is reported as 88 µM (≈ 30.1 µg/mL). The MIC90 [4] was 23 µM (≈ 7.87 µg/mL) and the IC50 (THP-1) was over 30 µM.
For `O=C(Nc1cccc(Br)c1)c1ccc2cc(O)ccc2c1`, the “log K” value [1] was 0.8767, the MIC90 [2] was 23 µM (≈ 7.87 µg/mL) and the MIC90 [3] was 175 µM (≈ 59.9 µg/mL). It also gave an MIC90 [4] of 23 µM (≈ 7.87 µg/mL), an IC50 (THP-1) of over 30 µM and an Activity [5] of 41.2%.
In the case of `O=C(Nc1ccc(Br)cc1)c1ccc2cc(O)ccc2c1`, the “log K” value [1] is reported as 0.8884, the MIC90 [2] is reported as 23 µM (≈ 7.87 µg/mL) and the MIC90 [3] is reported as 1460 µM (≈ 500 µg/mL). It also gave an MIC90 [4] of 731 µM (≈ 250 µg/mL).
For `O=C(Nc1ccccc1C(F)(F)F)c1ccc2cc(O)ccc2c1`, the “log K” value [1] was 0.5623, the MIC90 [2] was 91 µM (≈ 30.1 µg/mL) and the MIC90 [3] was 181 µM (≈ 60 µg/mL). The MIC90 [4] was 377 µM (≈ 125 µg/mL).
For `O=C(Nc1cccc(C(F)(F)F)c1)c1ccc2cc(O)ccc2c1`, the “log K” value [1] was 0.9558, the MIC90 [2] was 24 µM (≈ 7.95 µg/mL) and the MIC90 [3] was 91 µM (≈ 30.1 µg/mL). It also gave an MIC90 [4] of 24 µM (≈ 7.95 µg/mL), an IC50 (THP-1) of over 30 µM and an Activity [5] of 42.9%.
For `O=C(Nc1ccc(C(F)(F)F)cc1)c1ccc2cc(O)ccc2c1`, the “log K” value [1] was 1.0133, the MIC90 [2] was 24 µM (≈ 7.95 µg/mL) and the MIC90 [3] was 91 µM (≈ 30.1 µg/mL). For the same compound, the MIC90 [4] was 91 µM (≈ 30.1 µg/mL) and the IC50 (THP-1) was over 30 µM.
For `O=C(Nc1ccccc1[N+](=O)[O-])c1ccc2cc(O)ccc2c1`, the “log K” value [1] was 0.8553, the MIC90 [2] was 97 µM (≈ 29.9 µg/mL) and the MIC90 [3] was 195 µM (≈ 60.1 µg/mL). It also gave an MIC90 [4] of 26 µM (≈ 8.02 µg/mL) and an IC50 (THP-1) of over 30 µM.
For `O=C(Nc1cccc([N+](=O)[O-])c1)c1ccc2cc(O)ccc2c1`, the “log K” value [1] was 0.8533, the MIC90 [2] was 26 µM (≈ 8.02 µg/mL) and the MIC90 [3] was 97 µM (≈ 29.9 µg/mL). The MIC90 [4] was 26 µM (≈ 8.02 µg/mL) and the IC50 (THP-1) was over 30 µM.
For `O=C(Nc1ccc([N+](=O)[O-])cc1)c1ccc2cc(O)ccc2c1`, the “log K” value [1] was 0.5911, the MIC90 [2] was 26 µM (≈ 8.02 µg/mL) and the MIC90 [3] was 49 µM (≈ 15.1 µg/mL). It also gave an MIC90 [4] of 97 µM (≈ 29.9 µg/mL).
Compound `NNC(=O)c1ccncc1` [ISONIAZID] has an MIC90 [2] of 58 µM (≈ 7.95 µg/mL), an MIC90 [3] of 3650 µM (≈ 500 µg/mL) and an MIC90 [4] of 1820 µM (≈ 250 µg/mL).
Work on `CO[C@H]1/C=C/O[C@@]2(C)Oc3c(C)c(O)c4c(O)c(c(/C=N/N5CCN(C)CC5)c(O)c4c3C2=O)NC(=O)/C(C)=C\C=C\[C@H](C)[C@H](O)[C@@H](C)[C@@H](O)[C@@H](C)[C@H](OC(C)=O)[C@@H]1C` [RIFAMPIN] yielded an MIC90 [2] of 10 µM (≈ 8.23 µg/mL), an MIC90 [3] of 10 µM (≈ 8.23 µg/mL) and an MIC90 [4] of 109 µM (≈ 89.7 µg/mL).
